# Source: US6172112A, “Retinoids and use thereof” (priority 1999, dated 2001)
# Entries after “also recorded” stand apart in the source; their conditions may differ. Like-named read-outs stand apart in the source and are kept apart here.
# Legend:
# NB4 cells [1] = conditions: alone; previously shown by Breitman and coworkers; cited from earlier work
# HL-60 cells = experiment: retinoid induction of differentiation of HL-60 cells (NBT); type: cell-based; conditions: Homo sapiens, HL-60, 96 h; 4-day induction of differentiation; read-out: ED50 (nM) HL-60
# Experimental: (§1) Human leukemia cell line HL-60 and NB4 were used for measuring the ability of retinoids to induce terminal differentiation. Both cell lines are predominantly promyelocytes and are induced by retinoic acid to mature to cells with many characteristics of mature granulocytes. The induction of this differentiation is the basis for assaying one of the biological activities of retinoic acid analogues. For the differentiation assay, HL-60 or NB4 cells were grown in nutrient medium with fetal bovine serum as detailed by Breitman (15).
# (§2) The percentage of cells that gained this marker was measured microscopically. The percentage of positive cells was then plotted as a function of the retinoid concentration to determine ED50 and ED30 values used in the formation of isoboles.
# NB4 cells [2] = experiment: retinoid induction of differentiation of NB4 cells (NBT); type: cell-based, Human; conditions: for EC30: read-out: ED30 NB4 cell differentiation; for EC50: NB-4, 96 h, read-out: ED50 (nM) NB4
# Experimental: NB4 cells were obtained from Dr. Waxman after he received them from Dr. M. Lanotte. […] The cell were grown at 37° C. in a humidified atmosphere of 5% CO2 in air. Cell density was estimated on an electronic particle counter (Coulter electronic, Hialeah, Fla.) and cell viability with trypan bleu dye exclusion.
# as §1, §2
# [3] = system: MNU-induced mammary cancers; experiment: efficacy on MNU-induced mammary cancers; type: in vivo, Sprague-Dawley rats; conditions: 200 mg/kg diet
# NB4 cells [4] = experiment: retinoid metabolism in NB4 cells; type: in vitro ADME
# in vivo toxicity = conditions: preliminary data
# [5] = body weight in MNU mammary cancer study
# JMML cells = experiment: inhibition of JMML spontaneous CFU-GM colony formation; conditions: Homo sapiens
# Experimental: Mononuclear cells were separated by density gradient centrifugation, washed, and frozen in aliquots. […] No growth factors or other exogenous stimuli were added to the cultures. UAB retinoids and retinoic acid isomers were dissolved in either 100% ethanol or DMSO. Appropriate dilutions were made, and controls using the respective ethanol or DMSO concentration were set up in parallel. Varying doses of retinoids were added only once, 24 hours after initiation of the soft agar assays, by pipetting the retinoid solution on top of the soft agar and allowing the solution to enter the agar and interact with the cells by diffusion. The cultures were incubated for 14 days at 37° C. in a humidified atmosphere with 5% CO2.
# chick skin CRABP = target: T1, chick skin CRABP (Gallus gallus, UniProt A0A8V1AB82); experiment: chick skin CRABP radioligand binding assay; conditions: [3H]-(all-E)-RA radioligand
# T1 sequence (A0A8V1AB82 88-225): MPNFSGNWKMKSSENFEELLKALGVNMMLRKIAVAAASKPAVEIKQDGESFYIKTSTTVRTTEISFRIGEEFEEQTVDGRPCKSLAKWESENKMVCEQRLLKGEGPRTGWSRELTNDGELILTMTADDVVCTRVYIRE
# mouse skin papilloma [6] = conditions: 45.9 nmol dose
# Experimental: The mouse skin antipapilloma assay measured the ED50 values for retinoid tumor inhibition on the dorsal skin of mice. The inhibition of mouse skin papilloma by retinoids was performed according to a modification of the procedure developed by Verma and Boutwell (14) as reported previously by Muccio et al. (8).
# The UAB30 retinoids were evaluated next for their activity in preventing the chemical induction of papillomas on mouse skin (14).
# mouse skin papilloma [7] = conditions: ref (8); cited from earlier work
# [8] = system: acute promyelocytic leukemia (APL); conditions: patients with APL; cited from earlier work
# RARα = target: T2, RARα (Homo sapiens, UniProt P10276); conditions: CV-1 cells
# T2 sequence (P10276 1-462): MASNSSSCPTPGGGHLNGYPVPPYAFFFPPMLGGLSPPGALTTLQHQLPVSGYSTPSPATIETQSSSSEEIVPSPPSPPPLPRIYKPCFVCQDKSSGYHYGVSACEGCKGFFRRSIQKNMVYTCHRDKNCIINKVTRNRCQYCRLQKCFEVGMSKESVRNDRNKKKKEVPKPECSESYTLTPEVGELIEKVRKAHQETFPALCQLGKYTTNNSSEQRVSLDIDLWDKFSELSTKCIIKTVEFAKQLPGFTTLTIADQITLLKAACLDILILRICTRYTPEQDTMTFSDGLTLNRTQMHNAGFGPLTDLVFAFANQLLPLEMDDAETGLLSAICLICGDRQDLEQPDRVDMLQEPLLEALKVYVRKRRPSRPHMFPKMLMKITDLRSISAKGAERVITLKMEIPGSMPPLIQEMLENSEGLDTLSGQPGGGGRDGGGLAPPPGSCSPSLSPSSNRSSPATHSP
# Experimental: The antagonistic effects of UAB30 retinoids on the transcription of RARα were determined in CV-1 cells. The methods are nearly identical to those used to perform transcriptional assays. […] After 24 hours, cells were harvested and the transcriptional effects were measured relative CAT activity, after correction with β-gal activity for transfection efficiency. […] All experiments were performed in triplicate, and the data were averaged. […] These assays were performed in CV-1 cells with the RAR or RXR gene and the chloramphenicol acetyltransferase (CAT) reporter gene containing TREpal with a thymidine kinase promoter [(TREpal)2 -tk-CAT]. Twenty-four hours after transfection, cells were treated with a single dose of retinoid and the cell extracts were assayed for b-galactosidase and CAT activity. The antagonistic effects of UAB30 retinoids on the transcription of RAR-α were also determined in CV-1 cells. The methods are nearly identical to those used to perform transcriptional assays. These studies utilized the CAT reporter gene [(TREpal)2 -tk-CAT]. […] After 24 hours, cells were harvested and the transcriptional effects were measured in relative CAT activity, after correction with β-galactosidase activity for transfection efficiency. […] Experiments were performed in triplicate and the data were averaged.
# [9] = read-out: normalized percent inhibition of CFU-GM colony growth, patient J83 (%)
# [10] = read-out: normalized percent inhibition of CFU-GM colony growth, patient J84 (%)
structure (smiles),measurement,setting,value
"CC1=C(/C=C/C(C)=C/C=C/C(C)=C/C(=O)Nc2ccc(O)cc2)C(C)(C)CCC1 [4-HPR, 4-hydroxyphenylretinamide]",NB4 cell differentiation,NB4 cells [1],does not induce NB4 cells to differentiate
"CC(=C/C=C/C(C)=C/C(=O)O)/C=C1\CCCc2ccccc21 [(9Z)-UAB30, (2E,4E,6E,8E)-8-(3',4'-Dihydro-1'(2'H)-naphthalen-1'-ylidene)3,7-dimethyl-2,4,6-octatrienoic acid]",EC50,HL-60 cells,8000 nM
same,EC30,"NB4 cells [2]; Homo sapiens, NB-4, 72 h",> 10000 µM
same,EC50,NB4 cells [2]; Homo sapiens,10000 nM
same,NB4 cell differentiation,NB4 cells [2]; retinoid alone,no effect
same,growth of MNU-induced mammary cancers,[3],inhibited the growth of the MNU-induced mammary cancers
same,average mammary tumor weight/rat,[3]; 26 days post MNU,0.05 grams
same,average mammary tumor weight/rat,[3]; 33 days post MNU,0.05 grams
same,average mammary tumor weight/rat,[3]; 40 days post MNU,0.10 grams
same,average mammary tumor weight/rat,[3]; 47 days post MNU,0.30 grams
same,average mammary tumor weight/rat,[3]; 54 days post MNU,0.45 grams
same,average mammary tumor weight/rat,[3]; 61 days post MNU,0.55 grams
same,average mammary tumor weight/rat,[3]; 68 days post MNU,0.55 grams
same,average mammary tumor weight/rat,[3]; 75 days post MNU,0.55 grams
same,average mammary tumor weight/rat,[3]; 82 days post MNU,0.70 grams
same,average mammary tumor weight/rat,[3]; 89 days post MNU,0.90 grams
same,average mammary tumor weight/rat,[3]; 96 days post MNU,1.00 grams
same,average mammary tumor weight/rat,[3]; 103 days post MNU,1.35 grams
same,average mammary tumor weight/rat,[3]; 110 days post MNU,1.75 grams
same,average mammary tumor weight/rat,[3]; 117 days post MNU,2.00 grams
same,average mammary tumor weight/rat,[3]; 124 days post MNU,2.20 grams
same,average mammary tumor weight/rat,[3]; 131 days post MNU,2.35 grams
same,metabolism / metabolic stability,NB4 cells [4],metabolically stable for 5 days
same,toxicity,in vivo toxicity,much less toxic than 9-cis-retinoic acid
same,overall body growth,[5]; 200 mg/kg diet,no obvious effect
same,average body weight/rat,"[5]; 43 days of age, 200 mg/kg diet from day 53",133 grams
same,average body weight/rat,"[5]; 57 days of age, 200 mg/kg diet",158 grams
same,average body weight/rat,"[5]; 64 days of age, 200 mg/kg diet",174 grams
same,average body weight/rat,"[5]; 71 days of age, 200 mg/kg diet",188 grams
same,average body weight/rat,"[5]; 78 days of age, 200 mg/kg diet",197 grams
same,average body weight/rat,"[5]; 85 days of age, 200 mg/kg diet",203 grams
same,average body weight/rat,"[5]; 92 days of age, 200 mg/kg diet",210 grams
same,average body weight/rat,"[5]; 99 days of age, 200 mg/kg diet",211 grams
same,average body weight/rat,"[5]; 106 days of age, 200 mg/kg diet",215 grams
same,average body weight/rat,"[5]; 113 days of age, 200 mg/kg diet",216 grams
same,average body weight/rat,"[5]; 120 days of age, 200 mg/kg diet",218 grams
same,average body weight/rat,"[5]; 127 days of age, 200 mg/kg diet",223 grams
same,average body weight/rat,"[5]; 134 days of age, 200 mg/kg diet",227 grams
same,average body weight/rat,"[5]; 141 days of age, 200 mg/kg diet",236 grams
same,average body weight/rat,"[5]; 149 days of age, 200 mg/kg diet",234 grams
same,average body weight/rat,"[5]; 155 days of age, 200 mg/kg diet",236 grams
same,average body weight/rat,"[5]; 162 days of age, 200 mg/kg diet",238 grams
same,average body weight/rat,"[5]; 169 days of age, 200 mg/kg diet",242 grams
same,average body weight/rat,"[5]; 176 days of age, 200 mg/kg diet",243 grams
same,average body weight/rat,"[5]; 183 days of age, 200 mg/kg diet",244 grams
same,inhibition at 0.1 µM,JMML cells; [9],76%
same,inhibition at 1 µM,JMML cells; [9],79%
same,inhibition at 0.01 µM,JMML cells; [10],3%
same,inhibition at 0.1 µM,JMML cells; [10],44%
same,inhibition at 1 µM,JMML cells; [10],39%
"CC1=C(/C=C/C(C)=C/C=C/C(C)=C/C(=O)O)C(C)(C)CCC1 [(all-E)-RA, all-trans-retinoic acid, reference compound]",IC50,chick skin CRABP,0.6 µM
same,EC50,HL-60 cells,120 nM
same,EC50,"NB4 cells [2]; Homo sapiens, 4-day induction of differentiation",610 nM
same,EC30,"NB4 cells [2]; in combination with 9-cis-UAB30 (1:10), day 3",0.05 µM
same,EC30,NB4 cells [2]; in combination with all-trans-UAB30 (1:10),2.8 µM
same,EC30,"NB4 cells [2]; retinoid alone, 3 days",0.81 µM
same,prevention of papilloma (tumor) formation,mouse skin papilloma [6],95%
same,ED50 skin antipapilloma assay,mouse skin papilloma [7],3.0 nmol
same,complete remission rate,[8],90%
same,inhibition at 0.1 µM,"JMML cells; read-out: normalized percent inhibition of CFU-GM colony growth, patient J43 (%), 10^-7 M",74%
same,inhibition at 0.1 µM,"JMML cells; read-out: normalized percent inhibition of CFU-GM colony growth, patient J83 (%), 10^-7 M",88%
same,inhibition at 0.01 µM,"JMML cells; read-out: normalized percent inhibition of CFU-GM colony growth, patient J84 (%), 10^-8 M",33%
same,inhibition at 1 µM,"JMML cells; read-out: percent inhibition of CFU-GM colony growth (not normalized), 10^-6 M, J43 patient cells",85%
same,inhibition at 1 µM,"JMML cells; read-out: percent inhibition of CFU-GM colony growth (not normalized), 10^-6 M, J83 patient cells",78%
same,inhibition at 1 µM,"JMML cells; read-out: percent inhibition of CFU-GM colony growth (not normalized), 10^-6 M, J84 patient cells",61%
CCCCCCCOc1cc2c(cc1/C(C)=C/c1ccc(C(=O)O)cc1)C(C)(C)CCS2(=O)=O [Ro-41-5253],antagonism of (all-E)-RA induced RARα transcription,RARα,two-fold more active; also recorded: exhibited antagonism at each concentration of (all-E)-RA
